Measured values as given in patent US12358915B2, “METTL3 inhibitory compounds” (STORM THERAPEUTICS LTD., priority 2019, dated 2025).
pIC50: −log10 of the molar value. Like-named read-outs stand apart in the source and are kept apart here.

Biological target: T1, METTL3/14 (Homo sapiens, UniProt Q86U44)
T1 construct: The enzyme used was full-length his-tagged METTL3; His; made in house
Assay: METTL3/14 methyltransferase assay (METTL3_14 RFMS, RapidFire mass spectrometry);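 also: recombinant His-tagged METTL3 with FLAG-tagged METTL14 from baculovirus, SAH product quantified by mass spectrometry against isotope-labelled internal standards, 60 min at room temperature, scaled between no-RNA and DMSO-only wells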
Format: biochemical
Settings: read-out: METTL3_14 RFMS IC50

[1] = 5 nM METTL3/14, 0.2 μM RNA substrate, 0.5 μM SAM, lower limit of the assay IC50=5 nM, Compounds 63-265

T1 sequence (Q86U44 whole entry): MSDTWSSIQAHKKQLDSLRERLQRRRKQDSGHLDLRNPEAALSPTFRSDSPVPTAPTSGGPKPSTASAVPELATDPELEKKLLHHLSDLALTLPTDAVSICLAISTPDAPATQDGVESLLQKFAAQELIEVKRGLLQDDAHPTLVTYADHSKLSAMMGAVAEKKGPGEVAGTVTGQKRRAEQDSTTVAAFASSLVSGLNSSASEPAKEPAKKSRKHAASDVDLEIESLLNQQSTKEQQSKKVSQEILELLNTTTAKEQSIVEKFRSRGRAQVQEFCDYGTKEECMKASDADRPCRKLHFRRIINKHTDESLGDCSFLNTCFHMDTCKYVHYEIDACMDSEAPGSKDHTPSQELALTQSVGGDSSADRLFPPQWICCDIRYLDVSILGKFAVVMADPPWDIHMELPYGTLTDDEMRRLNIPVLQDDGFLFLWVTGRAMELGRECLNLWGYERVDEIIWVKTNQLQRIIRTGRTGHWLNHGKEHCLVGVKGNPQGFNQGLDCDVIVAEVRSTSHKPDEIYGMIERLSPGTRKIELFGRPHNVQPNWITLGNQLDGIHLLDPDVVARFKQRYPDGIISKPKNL
T1 sequence (Q9HCE5 whole entry partner): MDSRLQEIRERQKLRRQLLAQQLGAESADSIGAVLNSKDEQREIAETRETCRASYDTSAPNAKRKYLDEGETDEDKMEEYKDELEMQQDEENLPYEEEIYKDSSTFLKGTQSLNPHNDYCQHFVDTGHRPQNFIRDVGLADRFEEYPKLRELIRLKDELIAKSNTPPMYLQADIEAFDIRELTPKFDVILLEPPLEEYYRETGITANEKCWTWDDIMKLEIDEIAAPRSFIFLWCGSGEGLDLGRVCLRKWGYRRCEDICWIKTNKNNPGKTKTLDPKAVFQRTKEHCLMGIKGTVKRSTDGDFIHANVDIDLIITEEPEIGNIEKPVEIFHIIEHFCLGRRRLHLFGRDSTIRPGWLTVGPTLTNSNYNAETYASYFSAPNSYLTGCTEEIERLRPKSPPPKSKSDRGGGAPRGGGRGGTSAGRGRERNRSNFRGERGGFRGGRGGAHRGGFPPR

Compound | pIC50 [1] | pIC50
O=C(NCc1cn2cc(CNCc3ccn(CC(F)(F)F)n3)ccc2n1)c1cc(=O)n2ccccc2n1 [Compound 105, 4-oxo-N-({6-[({[1-(2,2,2-trifluoroethyl)-1H-pyrazol-3-yl]methyl}amino)methyl]imidazo[1,2-a]pyridin-2-yl}methyl)-4H-pyrido[1,2-a] pyrimidine-2-carboxamide] | 5.92 | –
CC1(CNCc2ccc3nc(CNC(=O)c4cc(=O)n5ccccc5n4)cn3c2)CCCCC1 [Compound 106, N-{[6-({[(1-methylcyclohexyl)methyl]amino}methyl)imidazo [1,2-a]pyridin-2-yl]methyl}-4-oxo-4H-pyrido [1,2-a]pyrimidine-2-carboxamide] | 7.82 | –
O=C(NCc1cn2cc(CNCCc3cccnc3)ccc2n1)c1cc(=O)n2ccccc2n1 [Compound 107, 4-oxo-N-{[6-({[2-(pyridin-3-yl)ethyl]amino}methyl)imidazo[1,2-a]pyridin-2-yl]methyl}-4H-pyrido[1,2-a]pyrimidine-2-carboxamide] | 6.84 | –
O=C(NCc1cn2cc(CNCC3COCCO3)ccc2n1)c1cc(=O)n2ccccc2n1 (centres unmarked) [Compound 108, N-{[6-({[(1,4-dioxan-2-yl)methyl]amino}methyl)imidazo [1,2-a]pyridin-2-yl]methyl}-4-oxo-4H-pyrido[1,2-a] pyrimidine-2-carboxamide] | 6.62 | –
O=C(NCc1cn2cc(CNC3CC3)ccc2n1)c1cc(=O)n2ccccc2n1 [Compound 109, N-({6-[(cyclopropyl-amino)methyl]imidazo[1,2-a]pyridin-2-yl}methyl)-4-oxo-4H-pyrido[1,2-a] pyrimidine-2-carboxamide] | 6.46 | –
O=C(NCc1cn2cc(CNC3CC(F)(F)C3)ccc2n1)c1cc(=O)n2ccccc2n1 [Compound 110, N-[(6-{[(3,3-difluorocyclobutyl)amino]methyl}imidazo[1,2-a]pyridin-2-yl)methyl]-4-oxo-4H-pyrido[1,2-a] pyrimidine-2-carboxamide] | 6.99 | –
O=C(NCc1cn2cc(CNCC3COC3)ccc2n1)c1cc(=O)n2ccccc2n1 [Compound 111, N-{[6-({[(oxetan-3-yl)methyl]amino}methyl)imidazo[1,2-a]pyridin-2-yl]methyl}-4-oxo-4H-pyrido[1,2-a] pyrimidine-2-carboxamide] | 6.96 | –
CC(C)(C)CNCc1ccc2nc(CNC(=O)c3cc(=O)n4ccccc4n3)cn2c1 [Compound 113, N-[(6-{[(2,2-dimethylpropyl)amino]methyl}imidazo[1,2-a]pyridin-2-yl)methyl]-4-oxo-4H-pyrido[1,2-a] pyrimidine-2-carboxamide] | 7.78 | –
O=C(NCc1cn2cc(CNC3CCC(F)(F)CC3)ccc2n1)c1cc(=O)n2ccccc2n1 [Compound 115, N-[(6-{[(4,4-difluoro-cyclohexyl)amino]methyl}imidazo [1,2-a]pyridin-2-yl)methyl]-4-oxo-4H-pyrido [1,2-a]pyrimidine-2-carboxamide] | 7.36 | –
O=C(NCc1cn2cc(CNC34CC(C3)C4)ccc2n1)c1cc(=O)n2ccccc2n1 [Compound 116, N-({6-[({bicyclo[1.1.1]pentan-1-yl}amino)methyl]imidazo[1,2-a]pyridin-2-yl}methyl)-4-oxo-4H-pyrido[1,2-a] pyrimidine-2-carboxamide] | – | 6.55
O=C(NCc1cn2cc(CNC[C@@H]3CCCO3)ccc2n1)c1cc(=O)n2ccccc2n1 [Compound 117, 4-oxo-N-({6-[({[(2S)-oxolan-2-yl]methyl}amino)methyl]imidazo[1,2-a]pyridin-2-yl}methyl)-4H-pyrido[1,2-a] pyrimidine-2-carboxamide] | 7.08 | –
O=C(NCc1cn2cc(CNC[C@H]3CCCO3)ccc2n1)c1cc(=O)n2ccccc2n1 [Compound 118, 4-oxo-N-({6-[({[(2R)-oxolan-2-yl]methyl}amino)methyl]imidazo[1,2-a]pyridin-2-yl}methyl)-4H-pyrido[1,2-a]pyrimidine-2-carboxamide] | 7.06 | –
O=C(NCc1cn2cc(CNCC(F)F)ccc2n1)c1cc(=O)n2ccccc2n1 [Compound 119, N-[(6-{[(2,2-difluoroethyl)amino]methyl}imidazo[1,2-a]pyridin-2-yl)methyl]-4-oxo-4H-pyrido[1,2-a] pyrimidine-2-carboxamide] | 6.24 | –
O=C(NCc1cn2cc(CNCC3CCOC3)ccc2n1)c1cc(=O)n2ccccc2n1 (centres unmarked) [Compound 120, 4-oxo-N-{[6-({[(oxolan-3-yl)methyl]amino}methyl)imidazo[1,2-a]pyridin-2-yl]methyl}-4H-pyrido [1,2-a]pyrimidine-2-carboxamide] | 7.61 | –
CC1(CNCc2ccc3nc(CNC(=O)c4cc(=O)n5ccccc5n4)cn3c2)CC1 [Compound 121, N-{[6-({[(1-methylcyclopropyl)methyl]amino}methyl)imidazo [1,2-a]pyridin-2-yl]methyl}-4-oxo-4H-pyrido [1,2-a]pyrimidine-2-carboxamide] | 7.77 | –
O=C(NCc1cn2cc(CNC3CCOC3)ccc2n1)c1cc(=O)n2ccccc2n1 (centres unmarked) [Compound 122, 4-oxo-N-[(6-{[(oxolan-3-yl)amino]methyl}imidazo[1,2-a]pyridin-2-yl)methyl]-4H-pyrido[1,2-a] pyrimidine-2-carboxamide] | 6.96 | –
COC(=O)C(NCc1ccc2nc(CNC(=O)c3cc(=O)n4ccccc4n3)cn2c1)C(C)C (centres unmarked) [Compound 123, methyl 3-methyl-2-[({2-[({4-oxo-4H-pyrido[1,2-a]pyrimidin-2-yl}formamido)methyl]imidazo [1,2-a]pyridin-6-yl}methyl)amino] butanoate] | 6.48 | –
O=C(NCc1cn2cc(CNC3CCCOC3)ccc2n1)c1cc(=O)n2ccccc2n1 (centres unmarked) [Compound 124, N-[(6-{[(oxan-3-yl)amino]methyl}imidazo[1,2-a]pyridin-2-yl)methyl]-4-oxo-4H-pyrido [1,2-a]pyrimidine-2-carboxamide] | 6.92 | –
O=C(NCc1cn2cc(CNC[C@H](O)C(F)(F)F)ccc2n1)c1cc(=O)n2ccccc2n1 [Compound 125, 4-oxo-N-{[6-({[(2S)-3,3,3-trifluoro-2-hydroxypropyl]amino}methyl)imidazo[1,2-a]pyridin-2-yl]methyl}-4H-pyrido[1,2-a] pyrimidine-2-carboxamide] | 6.66 | –
O=C(NCc1cn2cc(CNCCF)ccc2n1)c1cc(=O)n2ccccc2n1 [Compound 128, N-[(6-{[(2-fluoroethyl)amino]methyl}imidazo [1,2-a]pyridin-2-yl)methyl]-4-oxo-4H-pyrido[1,2-a] pyrimidine-2-carboxamide] | 6.48 | –
O=C(NCc1cn2cc(CN3CCC(F)(F)CC3)ccc2n1)c1cc(=O)n2ccccc2n1 [Compound 129, N-({6-[(4,4-difluoropiperidin-1-yl)methyl]imidazo [1,2-a]pyridin-2-yl}methyl)-4-oxo-4H-pyrido[1,2-a]pyrimidine-2-carboxamide] | 7.07 | –
O=C(NCc1cn2cc(CN3CCN(c4ccccc4)CC3)ccc2n1)c1cc(=O)n2ccccc2n1 [Compound 130, 4-oxo-N-({6-[(4-phenylpiperazin-1-yl)methyl]imidazo [1,2-a]pyridin-2-yl}methyl)-4H-pyrido[1,2-a] pyrimidine-2-carboxamide] | 6.69 | –
O=C(NCc1cn2cc(CN3CCc4ccccc4C3)ccc2n1)c1cc(=O)n2ccccc2n1 [Compound 131, 4-oxo-N-({6-[(1,2,3,4-tetrahydroisoquinolin-2-yl)methyl]imidazo [1,2-a]pyridin-2-yl}methyl)-4H-pyrido [1,2-a]pyrimidine-2-carboxamide] | 7.06 | –
